Reference: patent publication US20210283056A1, “COMPOSITIONS FOR THERAPEUTICS PRESCREENING” (BARCODE DIAGNOSTICS LTD., priority 2018, published 2021)
Like-named read-outs stand apart in the source and are kept apart here.

What was measured:
Cells growing in culture = experiment: Barcode quantification by Real Time PCR, dead vs. live cells; type: cell-based
Description: Cells growing in culture were treated with the liposome mixes and 48 hours after exposure the cell were subjected to viability assay. Dead cells from each study group (in triplicates) were first pelleted by centrifugation of supernatant and kept at −20 C until further analysis. Fresh medium supplemented with 10% Presto Blue Reagent (ThermoFisher Scientific) was added to cells and incubated at 37 C for about 90 minutes. 100 ul of each well was transferred to a black 96 wells plate and Fluorescence was recorded ([…]). Viability was calculated as Fluorescence of each sample relative to fluorescence of non-treated cells. Both mixes killed a similar amount of cells. Immediately following the viability assay, adherent cells were detached by addition of trypsin to the wells. Barcode analysis by Real Time PCR was performed as follows. The different barcodes were analyzed using a ThermoFisher Scientific Quantstudiol PCR System. The assay was run with TaqMan Fast Advanced master mix (ThermoFisher Scientific), primers (IDT) and a barcode specific probe labeled on the 5′ end with fluorescent FAM dye and on its 3′ end with a nonfluorescent quencher linked to a Minor Groove Binder (MGB) (ThermoFisher Scientific). […] After preparation of all dilutions, Real Time PCR was used to validate the standard curve. A reaction was run for all barcodes together. Reaction settings were as follow: 2 μL of sample was run in a Real Time Quantstudiol PCR instrument, using fast template protocol. Each sample was run in duplicate. Each barcode tested was compared to a standard curve run on the same plate. Each barcode reaction comprised at least 4 NTCs. In the Set Up, target (barcode tested), task (sample=Unknown/Standard/NTC), name and biological group were assigned to each sample. […] Analysis calculated average amount of barcode copies between replicate samples. This quantity was obtained for 2 μl of sample (volume of sample in RT-PCR reaction) and was adjusted to the final volume of the sample. The ratio of each barcode found in dead vs. live cells was calculated.

[1] = test system: 4T1 derived cancers and metastases; conditions: cited from earlier work; for Effect on tumor growth: Kiew et al., 2012
[2] = test system: triple negative breast cancer tumors; experiment: Barcode analysis in live and dead tumor cells after injection of liposome mixes; type: in vivo, BALB/c female mice; conditions: 5%
Excerpt: FIGS. 1A-D: Detection of barcodes from liposome mixes with equal relative drug concentrations. […] Potency of the drugs was defined as the ratio of the amount of a barcode in dead cells to the amount of that barcode in live cells. (1D) A bar chart showing fluorescence from dead cells after treatment with two mixes of liposomes.
Each drug has its own specific effective therapeutic dose (ETD), and in order to test efficacy it is reasonable that each liposome mix (a mix of all three types of liposomes to be injected together) should have the same relative amount of each drug. That is, in order to determine an ideal dose, batches of mixed liposomes were generated in which all three drugs were present in a concentration that was either 5%, 1% or 0.1% of the effective therapeutic dose. Table 2 provides the amounts (in ul) of each liposome batch that were added to the mix in order to provide each total dose.
Cell from a triple negative breast cancer tumor were transplanted to the fat pad of BALB/c female mice and allowed to grow to form tumors in the mice. The mice were separated into 3 groups and then each group was injected with the 5%, 1% or 0.1% liposome mixes. 48 hours post injection the tumors were excised, and live/dead cell analysis was performed by FACS, followed by barcode analysis in live and dead cells separately.

[3] = first batch of liposomes (equal liposome number)

| SMILES | Effective at killing the cells (Cells growing in culture; [3]) | Effect on tumor growth ([1]; first couple of days of treatment) | Effect on tumor growth ([1]; later time points) | Effectiveness relative to the other two drugs ([2]; 1% or 0.1% mixes, patent regards it as likely artifact) | Potency (barcode in dead cells to live cells) ([2]; 1% or 0.1% of ETD liposome mixes, 48 hours post injection) | Sensitivity of 4T1 derived cancers and metastases ([1]; reported) | Effective at killing the cells (Cells growing in culture; second batch of liposomes (equal relative drug concentration)) | Resistance of 4T1 cells ([1]; reported) |
| --- | --- | --- | --- | --- | --- | --- | --- | --- |
| Nc1ccn([C@@H]2O[C@H](CO)[C@@H](O)C2(F)F)c(=O)n1 [Gemcitabine] | effective | retards tumor growth | not be effective | > 10 fold | most effective treatment | – | – | – |
| N.N.[Cl][Pt][Cl] [cisplatin] | – | – | – | – | – | highly sensitive | – | – |
| COc1cccc2c1C(=O)c1c(O)c3c(c(O)c1C2=O)C[C@@](O)(C(=O)CO)C[C@@H]3O[C@H]1C[C@H](N)[C@H](O)[C@H](C)O1 [doxorubicin] | effective | – | – | – | – | less so | effective | become resistant |
